Assay results taken from article PMC10486429, “Investigations Using Albumin Binders to Modify the Tissue Distribution Profile of Radiopharmaceuticals Exemplified with Folate Radioconjugates” (Cancers, 2023).

What was measured:
[1] = tested on: FR-positive KB tumor cells; assay: Uptake and internalization of 177Lu-RedFols in KB tumor cells; assay type: cell-based, human; conditions: 4 h incubation, percent of total added activity
Method: The KB cells (a human cervical carcinoma cell line, subclone of HeLa cells, ACC-136) were purchased from the German Collection of Microorganisms and Cell Cultures (DSMZ, Germany). The tumor cells were cultured in folate-deficient RPMI medium (FFRPMI, Cell Culture Technologies GmbH, Gravesano, Switzerland) supplemented with 10% fetal calf serum, […] and antibiotics.
The experiments to investigate the uptake and internalization of ^177Lu-RedFols (50 MBq/nmol) were performed according to a previously established protocol (Supplementary Materials Section S9). The results were presented as a percentage of total added activity and listed as the average ± SD of 3–6 independent experiments, each performed in triplicates. The data were analyzed for statistical significance using a one-way ANOVA with Tukey’s post-comparison test (GraphPad Prism software version 8) considering a p-value < 0.05 as statistically significant. […]
S8. Radiolabeling and Radiolytic Stability of Folate Radioconjugates
Purpose: RedFols were labeled with lutetium-177 and assessed for their in vitro sta- […]
Methods: Folate conjugates were dissolved in Milli-Q water containing 4–6% sodium ascorbate (0.5 M) to obtain a final concentration of 1 mM. Radiolabeling of the RedFols with lutetium-177 (no-carrier-added, in 0.04 M HCl; ITM Medical Isotopes GmbH, Mu-nich, Germany) was performed using a mixture of sodium acetate (0.5 M) and HCl (0.05 M) at pH ~4.5 in the presence of L-ascorbic acid (6 mg) as previously reported for […]
RedFol-1 (6R and 6S). […]
S9. Uptake and Internalization of 177Lu-RedFols
Purpose: Uptake and internalization studies were performed with all folate radiocon-jugates using folate receptor (FR)-positive KB tumor cells.
Methods: The experiments were performed as previously reported. KB tumor cells (human cervical cancer cell line, ACC-136) were seeded into poly-lysine-coated 12-well plates (0.5 × 10^6 cells in 2 mL per well) using folate-free RPMI (FFRPMI) medium supplemented with 10% fetal calf serum, glutamine and antibiotics. The tumor cells were incubated overnight to allow adhesion and growth at 37 °C and 5% CO2. After removal of the supernatant, the KB cells were rinsed with PBS prior to the addition of FFRPMI me-dium without supplements (975 µL/well). The folate radioconjugates (50 MBq/nmol) were added to each well in a volume of 25 µL (0.75 pmol, 38 kBq). In some wells, KB tumor cells were co-incubated with excess folic acid (100 µM) to block the FRs on the cell surface.
After incubation of the well plates for 2 h or 4 h at 37 °C and 5% CO2, the KB tumor cells were rinsed three times with ice-cold PBS to determine the total uptake of the folate radi-oconjugates. In order to assess the internalized fraction, a stripping buffer (aqueous solu-tion of 0.1 M acetic acid and 0.15 M NaCl, pH 3) was applied to release FR-bound folate radioconjugates from the cell surface. Cell samples were lysed by addition of NaOH solu-tion (1 M, 1 mL) to each well. The cell lysates were counted for activity in a γ-counter (Perkin Elmer, Wallac Wizard 1480, Waltham, MA, USA). The protein concentrations of […]
each sample were determined using a Micro BCA Protein Assay kit (Pierce, Thermo Sci-entific) in order to standardize the measured activity to the average content of protein in […]
Results: The results are presented in the main article and in Figure S1.
Figure S1. Uptake and internalization of folate radioconjugates in KB tumor cells after an incubation period of 2 h and 4 h at 37°C. (A) Uptake of the folate radioconjugates in KB tumor cells. (B) Inter-nalized fraction of folate radioconjugates in KB tumor cells. The data are expressed as average ± SD […]
S10. FR-binding Affinity (KD Values) of 177Lu-RedFols
Purpose: The folate radioconjugates were investigated in vitro in order to determine their FR-binding affinities (KD values).
Methods: The determination of the KD values was performed as previously reported […]

folate receptor (FR) = molecular target: T1, folate receptor (FR) (Homo sapiens, UniProt P15328); assay: FR-binding affinity (KD) of 177Lu-RedFols on IGROV-1 cells; conditions: 1 h at 4 °C, read-out: KD Value (95% CI)
T1 construct: endogenous in cells; host or cells: IGROV-1 (human ovarian carcinoma cell line), intact cells on ice
Method: (100 µM) to block FRs on the cell surface. The IGROV-1 tumor cells were incubated for 1 h at 4 °C on a shaker, followed by removal of the supernatants and rinsing of the cells twice with PBS. After lysis of the cells with NaOH solution (1 M, 500 µL), the samples were counted for activity using a γ-counter (Wallac Wizard 1480, Perkin Elmer, Waltham, MA, USA). The cpm of the specific binding (determined by subtracting the cpm of the non-specific binding from the cpm of total binding), were plotted against the molar con-centration of the added folate radioconjugates. Non-linear regression analysis was per-formed using GraphPad Prism software (version 8) to obtain KD values from one curve of 3−5 independent experiments, each performed in triplicates.
Results: The results are reported in the main article. […]

T1 sequence (P15328 25-257): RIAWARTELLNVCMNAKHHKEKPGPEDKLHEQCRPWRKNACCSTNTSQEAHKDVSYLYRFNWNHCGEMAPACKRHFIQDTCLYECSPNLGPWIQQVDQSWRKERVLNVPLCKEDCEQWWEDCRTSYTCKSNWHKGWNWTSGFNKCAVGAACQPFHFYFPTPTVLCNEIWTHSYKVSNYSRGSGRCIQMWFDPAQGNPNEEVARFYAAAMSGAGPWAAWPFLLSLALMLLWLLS

Structure (SMILES)	Cell-Internalized Fraction [1]	Total Cell Uptake [1]	Kd (folate receptor (FR))
CN1c2c(nc(N)[nH]c2=O)NC[C@H]1CNc1ccc(C(=O)N[C@@H](CCC(=O)N[C@@H](CCCCNC(=O)CN2CCN(CC(=O)O)CCN(CC(=O)O)CCN(CC(=O)O)CC2)C(=O)N[C@@H](CCCCNC(=O)CCCc2ccc(I)cc2)C(=O)O)C(=O)O)cc1 [[^177Lu]Lu-6R-RedFol-1, metal not drawn]	12 ± 2%	49 ± 11%	
CN1c2c(nc(N)[nH]c2=O)NC[C@H]1CNc1ccc(C(=O)N[C@@H](CCC(=O)N[C@@H](CCCCNC(=O)CN2CCN(CC(=O)O)CCN(CC(=O)O)CCN(CC(=O)O)CC2)C(=O)N[C@@H](CCCCNC(=O)c2ccc(CNC(=O)CCCc3ccc(I)cc3)cc2)C(=O)O)C(=O)O)cc1 [[^177Lu]Lu-6R-RedFol-3, metal not drawn]	19 ± 8%	39 ± 14%	4.7 nM
CN1c2c(nc(N)[nH]c2=O)NC[C@H]1CNc1ccc(C(=O)N[C@@H](CCC(=O)N[C@@H](CCCCNC(=O)CN2CCN(CC(=O)O)CCN(CC(=O)O)CCN(CC(=O)O)CC2)C(=O)N[C@@H](CCCCNC(=O)CCCCc2ccc(I)cc2)C(=O)O)C(=O)O)cc1 [[^177Lu]Lu-6R-RedFol-24, metal not drawn]	15 ± 1%	40 ± 6%	4.7 nM
CN1c2c(nc(N)[nH]c2=O)NC[C@H]1CNc1ccc(C(=O)N[C@@H](CCC(=O)N[C@@H](CCCCNC(=O)CN2CCN(CC(=O)O)CCN(CC(=O)O)CCN(CC(=O)O)CC2)C(=O)N[C@@H](CCCCNC(=O)c2ccc(CNC(=O)CCCCc3ccc(I)cc3)cc2)C(=O)O)C(=O)O)cc1 [[^177Lu]Lu-6R-RedFol-25, metal not drawn]	17 ± 3%	29 ± 8%	3.6 nM
CN1c2c(nc(N)[nH]c2=O)NCC1CNc1ccc(C(=O)NC(CCC(=O)NC(CCCCNC(=O)CN2CCN(CC(=O)[O-])CCN(CC(=O)[O-])CCN(CC(=O)[O-])CC2)C(=O)NC(CCCCNC(=O)CCCc2ccc(I)cc2)C(=O)O)C(=O)O)cc1.[177Lu+3] (stereo not drawn) [[^177Lu]Lu-6S-RedFol-1]	18 ± 1%	62 ± 6%	
CN1c2c(nc(N)[nH]c2=O)NCC1CNc1ccc(C(=O)NC(CCC(=O)NC(CCCCNC(=O)CN2CCN(CC(=O)[O-])CCN(CC(=O)[O-])CCN(CC(=O)[O-])CC2)C(=O)NC(CCCCNC(=O)c2ccc(CNC(=O)CCCc3ccc(I)cc3)cc2)C(=O)O)C(=O)O)cc1.[177Lu+3] (stereo not drawn) [[^177Lu]Lu-6S-RedFol-3]	23 ± 8%	44 ± 11%	2.8 nM
CN1c2c(nc(N)[nH]c2=O)NCC1CNc1ccc(C(=O)NC(CCC(=O)NC(CCCCNC(=O)CN2CCN(CC(=O)[O-])CCN(CC(=O)[O-])CCN(CC(=O)[O-])CC2)C(=O)NC(CCCCNC(=O)c2ccc(CNC(=O)CCCCc3ccc(I)cc3)cc2)C(=O)O)C(=O)O)cc1.[177Lu+3] (stereo not drawn) [[^177Lu]Lu-6S-RedFol-25]	31 ± 3%	55 ± 5%	2.2 nM
